From patent US20170131285A1, “METHODS AND COMPOSITIONS FOR DIAGNOSING, MONITORING AND TREATING CANCER” (INSERM (Institut National de la Sante et de la Recherche …, priority 2014, published 2017)
Where no end group is shown, it is not given here.

Key:
[1] = after systemic administration; cited from earlier work
[2] = target: T1, HSP70/TLR2 association (Homo sapiens, UniProt P0DMV8); assay: In vitro co-immunoprecipitation of TLR2 followed by HSP70 immunoblotting; format: binding; conditions: A8 from 0.3 μM to 1.8 μM, HSP70 immunoblot
T1 construct: HA; made in house; host or cells: cell-free: TNT Quick Coupled Transcription/Translation System (Promega)
Experimental: FIG. 3: A8 blocks HSP70/TLR2 association. (A) Immunoprecipitation of TLR2 in the presence of increasing concentrations of A8 (from 0.3 μM to 1.8 μM) was followed by HSP70 immunoblotting. IP control, no relevant IgG antibody. (B) Denatured luciferase (D) was incubated in the absence or presence of human HSP70 and, when indicated, increasing concentrations of A8 (C1=5 μM; C2=15 μM; C3=25 μM and C4=50 μM) for 1 hour at 25° C. Following incubation, the luciferase substrate D-luciferin was added and within 10 minutes the total light units emitted were collected for 10 seconds at 560 nm using a Wallac (Victor 3) spectrophotometer. *, p<0.05. (C) Biolayer interferometry to determine association and dissociation curves of HSP70 (concentration range from 2.5 μM to 156 nM) with biotinylated TRL2 immobilized on streptavidin sensor tips. (D) Association and dissociation curves of HSP70 (concentration range from 50 nM to 1.28 nM) with biotinylated A8 immobilized on streptavidin sensor tips. Curves in C and D represent mean values of triplicate measurements for each concentration.
For the in vitro coimmunoprecipitation, we used A8 or TLR2 recombinants proteins. […] The immunoprecipitated proteins were analysed by western blot.
For the in vitro co-immunoprecipitation, we used A8 or TLR2 recombinants proteins. […] The immunoprecipitated proteins were analyzed by western blot.

[3] = Toxicity observed in treated animals; format: in vivo; conditions: applicant's studies and bio-distribution studies
[4] = system: primary MDSC; assay: Primary MDSC proliferation (Cellometer-mini); format: cell-based, mouse; conditions: exosomes from B16F10, A8 16 μM, 24 hours
Experimental: (§1) FIG. 9: TDE and A8 effects on MSC2 and MDSC proliferation. A) Dynamic monitoring of in vitro MSC2 cell proliferation using the RTCA-DP system (Real-Time Cell Analyzer). MSC2 were incubated or not for 11 h with exosomes (from B16F10) in the absence or presence of A8 (16 μM and 32 μM). Cell index values were measured every 30 seconds (n=3). B) MSC2 were incubated or not for 24 h with exosomes (from B16F10) in the absence or presence of A8 (16 μM). Then, cells were labelled with BrdU and incorporation was determined by flow cytometry (n=3). C) MDSC were treated with exosomes (from B16F10) in the absence or presence of A8 ([…]) for 24 hours and then analyzed for proliferation by Cellometer-mini. *p<0.05.
(§2) MSC2 cells proliferation were analyzed by to different techniques. First, MSC2 (1·10^4) were seeded onto 16-well plates with medium containing 10% FBS and incubated for 34 hours. […] Into each well of the micro-electronic sensor transendothelial electric resistance (TER) was measured by xCELLigence real time cell analyzer DP system (Roche). TER was measured every 30 s and then normalized to the initial value. […] MDSC proliferation was analyzed by cell counting. MDSC cells (1·10^6) from spleen of naive mice (see MDSC isolation section) were treated or not with exosomes (from B16F10) in the absence or presence of A8 (16 μM) for 24 hours and then analyzed for viability by Cellometer-mini (Ozyme).

[5] = system: MSC2 cells; assay: IL-6 ELISA in supernatant of MSC2 cells incubated with exosomes; format: cell-based; conditions: exosomes from B16F10, 24 h
Experimental: FIG. 4: A8 blocks the activation and proliferation of MSC2 cells. (A) IL-6 concentration was determined by ELISA in the supernatant of MSC2 cells incubated or not for 24 h with exosomes (from B16F10) in the presence or absence of A8. *, p<0.05, (n=3). (B) A representative image of a western blot showing the kinetics of STAT3 phosphorylation in MCS2 cells incubated or not with exosomes isolated from B16F10, CT26 or HCT116 cells together with a peptide control (TDE) or A8 (TDE/A8). 14-3-3 is used as a loading control. In the right panels, the amount of pSTAT3 was quantified by densitometric analysis. *, p<0.05, n=4.
MSC2 cells were incubated alone or co-incubated with exosomes from B16F10 cells and/or A8 (during 24 h). Then, the supernatant was collected and centrifuged at 300 g at 4° C. for 5 min and analyzed with IL-6 ELISA assay (BD biosciences) according to the manufacturers' protocol.
Supernatants, collected from MSC2 or MDSC or co-cultured cells incubated alone or with exosomes from B16F10 cells and/or A8 (8 or 16 μM) were analyzed with IL-6, IL-10 and IFN gamma ELISA assay (BD biosciences) according to the manufacturers' protocol.

[6] = system: MSC2 cells; assay: MSC2 proliferation (RTCA-DP, BrdU); format: cell-based; conditions: exosomes from B16F10, A8 16 μM and 32 μM
Experimental: as §1, §2

T1 sequence (P0DMV8 whole entry): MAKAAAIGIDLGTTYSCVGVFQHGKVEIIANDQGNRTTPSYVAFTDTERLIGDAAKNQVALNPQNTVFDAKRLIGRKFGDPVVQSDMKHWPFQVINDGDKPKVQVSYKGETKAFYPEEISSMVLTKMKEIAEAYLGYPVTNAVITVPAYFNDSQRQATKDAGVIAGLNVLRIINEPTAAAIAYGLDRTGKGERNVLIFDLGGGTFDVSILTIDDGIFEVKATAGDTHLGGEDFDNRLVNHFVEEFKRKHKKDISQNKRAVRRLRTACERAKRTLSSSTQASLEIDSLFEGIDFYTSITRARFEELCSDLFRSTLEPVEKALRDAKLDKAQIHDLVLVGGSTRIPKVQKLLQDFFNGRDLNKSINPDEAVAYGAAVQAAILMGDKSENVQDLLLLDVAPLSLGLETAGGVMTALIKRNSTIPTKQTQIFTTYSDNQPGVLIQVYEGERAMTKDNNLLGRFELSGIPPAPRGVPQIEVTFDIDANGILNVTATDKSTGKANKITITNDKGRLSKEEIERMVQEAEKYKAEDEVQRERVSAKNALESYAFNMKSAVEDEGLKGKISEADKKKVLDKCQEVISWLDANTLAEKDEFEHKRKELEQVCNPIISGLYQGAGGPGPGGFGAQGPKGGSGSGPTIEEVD

SPWPRPTY [Aptamer A8, SPWPRPTY]
biodistribution (localization of the peptide) [1]: localizes mainly in the tumor area
HSP70 association to TLR2 [2]: inhibited by A8 in a dose-dependent manner
toxicity in the animals, notably cardiac or hepatic [3]: neither our studies nor those done for the bio-distribution of A8 indicate any evident toxicity
TDE-induced proliferation of primary MDSC [4]: blocked
IL-6 production by MSC2 stimulated by tumor-derived exosomes [5]: abrogated
TDE-induced proliferation of MSC2 [6]: blocked
